Reference: ChEMBL document CHEMBL3639260, “5-membered nitrogen containing heterocyclic derivatives and pharmaceutical compositions comprising the same” (2015)

Target: Xanthine dehydrogenase/oxidase (Bos taurus, UniProt P80457)
Assay: Inhibition Assay: Xanthine oxidase (from bovine milk, Sigma) was prepared with phosphate-buffered saline (PBS) at 0.02 units/mL, and then the solution was added to 96 well plates at 50 μL/well. In addition, test compounds diluted with PBS were added at 50 μL/well. Xanthine (Wako) at 200 μM prepared with PBS was added at 100 μL/well, and the reaction was conducted for 10 minutes at room temperature. Absorbance at 290 nm was measured using a microplate reader SpectraMax Plus 384 (Molecular device). The absorbance under a condition without xanthine is 0%, and control without test compounds is 100%.

Chain of Xanthine dehydrogenase/oxidase (P80457 whole entry): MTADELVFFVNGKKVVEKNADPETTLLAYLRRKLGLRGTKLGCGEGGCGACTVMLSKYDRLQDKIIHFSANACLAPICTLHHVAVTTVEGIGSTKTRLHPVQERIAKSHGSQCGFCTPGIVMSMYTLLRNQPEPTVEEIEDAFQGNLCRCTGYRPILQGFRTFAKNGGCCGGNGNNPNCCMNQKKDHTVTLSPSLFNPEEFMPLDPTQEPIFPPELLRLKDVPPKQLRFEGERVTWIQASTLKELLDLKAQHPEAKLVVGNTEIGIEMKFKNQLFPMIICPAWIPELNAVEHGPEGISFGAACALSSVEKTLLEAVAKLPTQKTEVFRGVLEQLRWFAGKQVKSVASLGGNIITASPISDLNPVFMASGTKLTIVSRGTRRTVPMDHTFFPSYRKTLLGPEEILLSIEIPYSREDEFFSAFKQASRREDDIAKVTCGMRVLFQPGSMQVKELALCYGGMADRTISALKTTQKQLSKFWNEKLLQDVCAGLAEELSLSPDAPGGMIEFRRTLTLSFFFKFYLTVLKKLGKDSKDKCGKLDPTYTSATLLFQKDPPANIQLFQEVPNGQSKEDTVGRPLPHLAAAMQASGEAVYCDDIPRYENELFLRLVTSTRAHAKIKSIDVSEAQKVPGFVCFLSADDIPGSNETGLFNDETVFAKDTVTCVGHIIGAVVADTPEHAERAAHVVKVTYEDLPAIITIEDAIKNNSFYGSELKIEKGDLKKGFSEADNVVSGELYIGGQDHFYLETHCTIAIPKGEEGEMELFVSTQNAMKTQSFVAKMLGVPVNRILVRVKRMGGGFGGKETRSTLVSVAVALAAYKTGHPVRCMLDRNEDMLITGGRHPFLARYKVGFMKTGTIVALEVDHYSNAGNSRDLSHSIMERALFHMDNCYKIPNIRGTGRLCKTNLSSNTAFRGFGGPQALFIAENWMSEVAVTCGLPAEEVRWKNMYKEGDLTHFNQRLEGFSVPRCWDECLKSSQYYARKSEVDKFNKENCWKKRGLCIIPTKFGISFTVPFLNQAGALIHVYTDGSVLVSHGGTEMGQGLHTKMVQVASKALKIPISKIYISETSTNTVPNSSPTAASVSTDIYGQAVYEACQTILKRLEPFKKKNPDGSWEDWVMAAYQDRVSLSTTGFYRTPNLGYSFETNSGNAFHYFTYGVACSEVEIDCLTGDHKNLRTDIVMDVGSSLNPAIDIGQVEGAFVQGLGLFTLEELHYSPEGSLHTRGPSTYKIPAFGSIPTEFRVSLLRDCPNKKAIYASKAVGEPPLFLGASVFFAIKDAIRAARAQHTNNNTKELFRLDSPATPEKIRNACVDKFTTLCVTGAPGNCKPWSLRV

IC50 [nM]	Structure (SMILES)
63.2	N#Cc1cn(-c2ccc(C(=O)O)cc2)cc1-c1ccc(OCCCO)cc1
47	N#Cc1cn(-c2ccc(C(=O)O)cc2)cc1-c1ccccc1OCCOc1ccccc1
